The values below come from patent US10660877B2 (BRISTOL-MYERS SQUIBB COMPANY, priority 2016, dated 2020).

By IC50 is commonly meant the concentration that gives 50% inhibition.

One assay concerns the target human TLR7 (Homo sapiens (Human), UniProt Q9NYK1). The experiment in a line: TLR7 inhibition reporter assay (HEK-Blue cells, SEAP reporter, gardiquimod stimulation). In kind it is cell-based. For orientation: Reporter assays use an easily measured gene product as a stand-in for the process of interest.
The next assay deals with human TLR8 (Homo sapiens (Human), UniProt Q9NR97). The experiment in a line: TLR8 inhibition reporter assay (HEK-Blue cells, SEAP reporter, R848 stimulation).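 Note: compounds tested from 0.05 nM to 50 µM, 22 h at 37 °C, SEAP measured with HEK-Blue Detection, inhibition relative to agonist plus DMSO versus a known inhibitor.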
A further assay has as its target human TLR9 (Homo sapiens (Human), UniProt Q9NR96). The assay is described as follows: TLR9 inhibition reporter assay (HEK-Blue cells, SEAP reporter, ODN2006 stimulation).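 Note: compounds tested over 0.05 nM to 50 µM, 22 h incubation, inhibition taken as SEAP signal drop from agonist plus DMSO wells toward a known inhibitor control.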
Setting [1] is: HEK-Blue cells overexpressing human TLR7, gardiquimod 7.5 μM.
[2] abbreviates: read-out: TLR8 IC50, HEK-Blue cells overexpressing human TLR8, R848 15.9 μM.
Where [3] appears, read: read-out: TLR9 IC50, HEK-Blue cells overexpressing human TLR9, ODN2006 5 nM.

Read-outs that look alike come from different tables or passages of the source.

Sequence of human TLR8 (Q9NR97 27-1041): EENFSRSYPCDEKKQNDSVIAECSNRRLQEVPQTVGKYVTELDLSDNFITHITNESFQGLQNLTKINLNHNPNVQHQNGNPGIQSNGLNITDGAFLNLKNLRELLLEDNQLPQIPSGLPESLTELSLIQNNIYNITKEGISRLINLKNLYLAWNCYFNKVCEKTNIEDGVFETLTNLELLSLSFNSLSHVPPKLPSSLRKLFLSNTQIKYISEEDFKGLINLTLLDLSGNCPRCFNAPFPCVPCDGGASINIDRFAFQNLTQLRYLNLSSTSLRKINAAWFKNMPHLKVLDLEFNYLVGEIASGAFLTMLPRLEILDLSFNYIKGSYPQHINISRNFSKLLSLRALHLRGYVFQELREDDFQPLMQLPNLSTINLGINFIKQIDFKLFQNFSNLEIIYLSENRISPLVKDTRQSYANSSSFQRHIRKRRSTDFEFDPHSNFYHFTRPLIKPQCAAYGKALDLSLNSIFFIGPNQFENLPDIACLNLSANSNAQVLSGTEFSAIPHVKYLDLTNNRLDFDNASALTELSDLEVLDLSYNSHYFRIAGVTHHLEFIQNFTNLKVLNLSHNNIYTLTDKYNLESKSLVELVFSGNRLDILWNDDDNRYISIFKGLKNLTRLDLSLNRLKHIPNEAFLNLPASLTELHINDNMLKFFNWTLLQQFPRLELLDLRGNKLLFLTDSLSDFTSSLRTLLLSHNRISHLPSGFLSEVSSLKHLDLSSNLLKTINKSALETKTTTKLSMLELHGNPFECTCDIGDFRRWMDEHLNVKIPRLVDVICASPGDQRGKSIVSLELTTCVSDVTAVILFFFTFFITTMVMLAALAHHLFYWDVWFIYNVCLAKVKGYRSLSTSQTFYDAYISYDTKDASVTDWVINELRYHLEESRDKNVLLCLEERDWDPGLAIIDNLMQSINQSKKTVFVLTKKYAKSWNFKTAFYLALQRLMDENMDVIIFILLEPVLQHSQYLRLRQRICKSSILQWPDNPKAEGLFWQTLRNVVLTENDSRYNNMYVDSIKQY
Sequence of human TLR9 (Q9NR96 26-1032): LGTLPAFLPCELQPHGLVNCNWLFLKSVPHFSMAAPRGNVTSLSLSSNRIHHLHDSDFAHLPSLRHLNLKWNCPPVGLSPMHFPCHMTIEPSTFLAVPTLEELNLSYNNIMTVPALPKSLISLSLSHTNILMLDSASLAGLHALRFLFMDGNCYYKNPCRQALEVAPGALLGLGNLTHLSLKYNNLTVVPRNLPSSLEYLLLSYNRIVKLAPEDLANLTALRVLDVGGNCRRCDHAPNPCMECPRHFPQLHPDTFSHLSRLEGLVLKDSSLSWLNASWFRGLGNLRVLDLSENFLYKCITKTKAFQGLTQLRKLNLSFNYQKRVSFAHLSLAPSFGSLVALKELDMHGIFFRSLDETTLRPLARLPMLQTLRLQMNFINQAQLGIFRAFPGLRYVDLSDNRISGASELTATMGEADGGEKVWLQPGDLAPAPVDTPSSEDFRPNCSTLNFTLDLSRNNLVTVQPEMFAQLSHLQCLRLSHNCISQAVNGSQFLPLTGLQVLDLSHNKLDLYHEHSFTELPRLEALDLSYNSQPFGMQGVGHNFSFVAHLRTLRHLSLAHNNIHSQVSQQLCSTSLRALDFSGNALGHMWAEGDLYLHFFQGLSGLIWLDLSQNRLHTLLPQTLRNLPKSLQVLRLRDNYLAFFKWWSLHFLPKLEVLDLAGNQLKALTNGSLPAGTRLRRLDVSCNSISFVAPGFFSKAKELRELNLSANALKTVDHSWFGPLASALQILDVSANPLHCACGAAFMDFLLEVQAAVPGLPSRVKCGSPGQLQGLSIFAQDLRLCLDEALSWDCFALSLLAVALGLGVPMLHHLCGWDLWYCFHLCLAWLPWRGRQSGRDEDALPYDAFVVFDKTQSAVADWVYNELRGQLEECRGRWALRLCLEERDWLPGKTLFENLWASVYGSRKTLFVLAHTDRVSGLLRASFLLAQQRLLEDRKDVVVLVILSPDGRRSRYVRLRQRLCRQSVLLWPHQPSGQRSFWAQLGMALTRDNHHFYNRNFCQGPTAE
Sequence of human TLR7 (Q9NYK1 27-1049): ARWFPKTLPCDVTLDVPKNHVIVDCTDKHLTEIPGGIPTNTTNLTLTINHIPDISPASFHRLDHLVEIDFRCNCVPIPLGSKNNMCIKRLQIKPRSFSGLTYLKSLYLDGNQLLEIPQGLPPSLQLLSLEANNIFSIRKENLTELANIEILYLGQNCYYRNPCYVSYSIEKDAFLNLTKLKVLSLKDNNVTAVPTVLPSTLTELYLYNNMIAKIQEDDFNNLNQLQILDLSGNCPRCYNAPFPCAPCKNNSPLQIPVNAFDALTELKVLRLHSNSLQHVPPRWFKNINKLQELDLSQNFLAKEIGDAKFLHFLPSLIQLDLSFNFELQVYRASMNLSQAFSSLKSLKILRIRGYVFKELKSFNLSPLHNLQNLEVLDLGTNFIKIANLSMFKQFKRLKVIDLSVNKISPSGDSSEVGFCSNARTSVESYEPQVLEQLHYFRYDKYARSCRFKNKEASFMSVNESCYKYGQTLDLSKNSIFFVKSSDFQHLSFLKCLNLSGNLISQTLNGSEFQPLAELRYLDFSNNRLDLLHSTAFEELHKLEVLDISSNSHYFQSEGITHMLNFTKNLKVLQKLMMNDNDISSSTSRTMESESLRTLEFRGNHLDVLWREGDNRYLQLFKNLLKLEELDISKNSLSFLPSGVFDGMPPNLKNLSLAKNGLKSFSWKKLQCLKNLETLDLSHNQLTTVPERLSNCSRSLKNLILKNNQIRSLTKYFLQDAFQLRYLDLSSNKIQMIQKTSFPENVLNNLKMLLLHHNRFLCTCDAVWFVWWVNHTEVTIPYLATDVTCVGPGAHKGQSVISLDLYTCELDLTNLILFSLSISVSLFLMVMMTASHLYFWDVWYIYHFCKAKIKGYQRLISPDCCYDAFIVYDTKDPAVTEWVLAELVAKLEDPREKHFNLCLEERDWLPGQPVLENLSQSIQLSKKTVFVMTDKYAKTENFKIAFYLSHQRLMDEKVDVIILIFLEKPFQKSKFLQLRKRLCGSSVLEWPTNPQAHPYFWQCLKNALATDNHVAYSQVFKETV

As to `Cc1cc(-c2[nH]c3ccc(C4CCN(C(=O)[C@@H]5C[C@H](O)CCN5)CC4)cc3c2C(C)C)ccn1` [Example 581, ((2S,4R)-4-hydroxypiperidin-2-yl)(4-(3-isopropyl-2-(2-methylpyridin-4-yl)-1H-indol-5-yl)piperidin-1-yl)methanone], the IC50 against human TLR7 (setting [1]) was 10.6 nM; on human TLR8 (setting [2]), 6.9 nM; at human TLR9 (setting [3]) it was 967 nM.
For `CNCC(=O)N1CCC(c2ccc3[nH]c(-c4cc(C5CC5)ncc4F)c(C(C)C)c3c2)CC1` [Example 518, 1-(4-(2-(2-cyclopropyl-5-fluoropyridin-4-yl)-3-isopropyl-1H-indol-5-yl)piperidin-1-yl)-2-(methylamino)ethan-1-one], in that order: 15.1 nM, 257 nM and 1610 nM.
For `CCc1c(-c2ccnc(C)c2)[nH]c2ccc(C3CCN(C(=O)C4CCCNC4)CC3)cc12` (stereo not drawn) [Example 624, (4-(3-ethyl-2-(2-methylpyridin-4-yl)-1H-indol-5-yl)piperidin-1-yl)(piperidin-3-yl)methanone], in that order: 128 nM, 44.1 nM and 311 nM.
For `Cc1cc(-c2[nH]c3ccc(C4CCN(CC(=O)N5CCC[C@@H](O)C5)CC4)cc3c2C(C)C)cc(C)n1` [Example 209, (R)-2-(4-(2-(2,6-dimethylpyridin-4-yl)-3-isopropyl-1H-indol-5-yl)piperidin-1-yl)-1-(3-hydroxypiperidin-1-yl)ethan-1-one], in that order: 3.5 nM, 13 nM and 604 nM.
In the case of `Cc1cc(-c2[nH]c3ccc(C4CCN(C(=O)C5(O)CC5)CC4)cc3c2C(C)C)cc(C)n1` [Example 107, (4-(2-(2,6-dimethylpyridin-4-yl)-3-isopropyl-1H-indol-5-yl)piperidin-1-yl)(1-hydroxycyclopropyl)methanone], the IC50 was 14.6 nM against human TLR7 (setting [1]), 28.4 nM at human TLR8 (setting [2]) and 13400 nM at human TLR9 (setting [3]).
As for `Cc1cc(-c2[nH]c3ccc(C4CCN(C(=O)C5CCNCC5)CC4)cc3c2C(C)C)ccn1` [Example 573, (4-(3-isopropyl-2-(2-methylpyridin-4-yl)-1H-indol-5-yl)piperidin-1-yl)(piperidin-4-yl)methanone], the IC50 on human TLR7 (setting [1]) stood at 12.9 nM; on human TLR8 (setting [2]) it was 33.9 nM; at human TLR9 (setting [3]), 379 nM.
On to `Cc1cc(-c2[nH]c3ccc(C4CCN(C(=O)c5ccon5)CC4)cc3c2C(C)C)cc(C)n1` [Example 203, (4-(2-(2,6-dimethylpyridin-4-yl)-3-isopropyl-1H-indol-5-yl)piperidin-1-yl)(isoxazol-3-yl)methanone], for which the IC50 was determined as 2 nM on human TLR7 (setting [1]), 113 nM at human TLR8 (setting [2]) and 3180 nM on human TLR9 (setting [3]).
For `Cc1cc(-c2[nH]c3ccc(C4CCN(CC(=O)NC56C[C@@H]7C[C@@H](CC(O)(C7)C5)C6)CC4)cc3c2C(C)C)cc(C)n1` [Example 225, 2-(4-(2-(2,6-dimethylpyridin-4-yl)-3-isopropyl-1H-indol-5-yl)piperidin-1-yl)-N-((1r,3 s,5R,7S)-3-hydroxyadamantan-1-yl)acetamide], in that order: 11.6 nM, 26.8 nM and 651 nM.
For `Cc1cc(-c2[nH]c3ccc(C4CCN(C(=O)CCN5CCOCC5)CC4)cc3c2C(C)C)c(F)cn1` [Example 657, 1-(4-(2-(5-fluoro-2-methylpyridin-4-yl)-3-isopropyl-1H-indol-5-yl)piperidin-1-yl)-3-morpholinopropan-1-one] the same measures were 5.9 nM, 5.3 nM and 5680 nM.
For `Cc1nccc(-c2[nH]c3ccc(C4CCNCC4)cc3c2C(C)C)c1C` [Example 30, 2-(2,3-dimethylpyridin-4-yl)-3-isopropyl-5-(piperidin-4-yl)-1H-indole] the same measures were 28.5 nM, 22.3 nM and 708 nM.
As to `CC(C)c1c(-c2ccnc(F)c2)[nH]c2ccc(C3CCN(C(=O)CN(C)C)CC3)cc12` [Example 522, 2-(dimethylamino)-1-(4-(2-(2-fluoropyridin-4-yl)-3-isopropyl-1H-indol-5-yl)piperidin-1-yl)ethan-1-one], the results for the IC50 at human TLR7 (setting [1]), at human TLR8 (setting [2]) and at human TLR9 (setting [3]) were 23.6 nM, 47.9 nM and 2010 nM, respectively.
As to `Cc1nccc(-c2[nH]c3ccc(C4CCNCC4)cc3c2C(C)C)c1N` [Example 13, 4-(3-isopropyl-5-(piperidin-4-yl)-1H-indol-2-yl)-2-methylpyridin-3-amine], the figures for the IC50 against human TLR7 (setting [1]), on human TLR8 (setting [2]) and at human TLR9 (setting [3]) were 16.1 nM, 90 nM and 419 nM, respectively.
Turning to `COc1cc(-c2[nH]c3ccc(C4CCN(C5CCN(C6CCCC6)CC5)CC4)cc3c2C(C)C)ccn1` [Example 802, 5-(1′-cyclopentyl-[1,4′-bipiperidin]-4-yl)-3-isopropyl-2-(2-methoxypyridin-4-yl)-1H-indole], the values for the IC50 at human TLR7 (setting [1]), on human TLR8 (setting [2]) and at human TLR9 (setting [3]) were 389 nM, 99.3 nM and 487 nM, respectively.
For `CC(=O)N1CCC(c2ccc3[nH]c(-c4cc(C)nc(F)c4)c(C(C)C)c3c2)CC1` [Example 499, 1-(4-(2-(2-fluoro-6-methylpyridin-4-yl)-3-isopropyl-1H-indol-5-yl)piperidin-1-yl)ethan-1-one] the same measures were 3690 nM, 10700 nM and over 50000 nM.
As for `CNCC(=O)N1CCC(c2ccc3[nH]c(-c4cc(C)ncc4F)c(C(C)C)c3c2)CC1` [Example 621, 1-(4-(2-(5-fluoro-2-methylpyridin-4-yl)-3-isopropyl-1H-indol-5-yl)piperidin-1-yl)-2-(methylamino)ethan-1-one], the values for the IC50 at human TLR7 (setting [1]), on human TLR8 (setting [2]) and at human TLR9 (setting [3]) were 2.4 nM, 5 nM and 1590 nM, respectively.
For `Cc1cc(-c2[nH]c3ccc(C4CCN(C(=O)C5(N)CC5)CC4)cc3c2C(C)C)cc(C)n1` [Example 195, (1-aminocyclopropyl)(4-(2-(2,6-dimethylpyridin-4-yl)-3-isopropyl-1H-indol-5-yl)piperidin-1-yl)methanone], in that order: 6 nM, 54 nM and 5270 nM.
For `Cc1cc(-c2[nH]c3ccc(C4CCN(CC(=O)NCC(C)C)CC4)cc3c2C(C)C)cc(C)n1` [Example 221, 2-(4-(2-(2,6-dimethylpyridin-4-yl)-3-isopropyl-1H-indol-5-yl)piperidin-1-yl)-N-isobutylacetamide] the same measures were 6.8 nM, 17.2 nM and 2010 nM.
Consider `Cc1cc(-c2[nH]c3ccc(C4CCN(CC(=O)N[C@H](CO)CC(C)C)CC4)cc3c2C(C)C)cc(C)n1` [Example 276, (S)-2-(4-(2-(2,6-dimethylpyridin-4-yl)-3-isopropyl-1H-indol-5-yl)piperidin-1-yl)-N-(1-hydroxy-4-methylpentan-2-yl)acetamide], for which the figures for the IC50 at human TLR7 (setting [1]), on human TLR8 (setting [2]) and on human TLR9 (setting [3]) were 6.3 nM, 18.6 nM and 853 nM, respectively.
For `Cc1cc(-c2[nH]c3ccc(C4CCN(C(=O)CN(C)CC(C)(C)O)CC4)cc3c2C(C)C)cc(C)n1` [Example 401, 1-(4-(2-(2,6-dimethylpyridin-4-yl)-3-isopropyl-1H-indol-5-yl)piperidin-1-yl)-2-((2-hydroxy-2-methylpropyl)(methyl)amino) ethan-1-one] the same measures were 9 nM, 53 nM and 1060 nM.
For `Cc1cc(-c2[nH]c3ccc(C4CCNCC4)cc3c2C(C)C)c(C)cn1` [Example 31, 2-(2,5-dimethylpyridin-4-yl)-3-isopropyl-5-(piperidin-4-yl)-1H-indole], in that order: 2.6 nM, 1 nM and 963 nM.
For `Cc1cc(-c2[nH]c3ccc(C4CCN(C5CCN(C(C)C)CC5)CC4)cc3c2C)cc(C)n1` [Example 813, 2-(2,6-dimethylpyridin-4-yl)-5-(1′-isopropyl-[1,4′-bipiperidin]-4-yl)-3-methyl-1H-indole], the IC50 on human TLR7 (HEK-Blue cells, gardiquimod 7.5 μM) was found to be 533 nM; at human TLR8 (read-out: TLR8 IC50, HEK-Blue cells, R848 15.9 μM) it was 114 nM; on human TLR9 (read-out: TLR9 IC50, HEK-Blue cells, ODN2006 5 nM) it was 42 nM.
As for `Cc1cc(-c2[nH]c3ccc(C4CCN(C(=O)CN(C)CC#N)CC4)cc3c2C(C)C)cc(C)n1` [Example 423, 2-((2-(4-(2-(2,6-dimethylpyridin-4-yl)-3-isopropyl-1H-indol-5-yl)piperidin-1-yl)-2-oxoethyl)(methyl)amino)acetonitrile], the IC50 was 2.8 nM on human TLR7 (setting [1]), 20.8 nM at human TLR8 (setting [2]) and 1330 nM on human TLR9 (setting [3]).
For `Cc1cc(-c2[nH]c3ccc(C4CCNCC4)c(F)c3c2C(C)C)ccn1` [Example 76, 4-fluoro-3-isopropyl-2-(2-methylpyridin-4-yl)-5-(piperidin-4-yl)-1H-indole], in that order: 1.4 nM, 2.7 nM and 440 nM.
Take `Cc1cc(-c2[nH]c3ccc(C4CCN(C(=O)C5CNC(=O)C5)CC4)cc3c2C(C)C)ccn1` (stereo not drawn) [Example 612, 4-(4-(3-isopropyl-2-(2-methylpyridin-4-yl)-1H-indol-5-yl)piperidine-1-carbonyl)pyrrolidin-2-one]: the concentration for half-maximal inhibition (IC50) on human TLR7 (setting [1]) was 73 nM; on human TLR8 (setting [2]) it was 162 nM; on human TLR9 (setting [3]), 16700 nM.
For `CCc1c(-c2ccnc(OCCN(C)C)c2)[nH]c2ccc(C3CCN(C4CCN(CC(C)C)CC4)CC3)cc12` [Example 770, 2-((4-(3-ethyl-5-(1′-isobutyl-[1,4′-bipiperidin]-4-yl)-1H-indol-2-yl)pyridin-2-yl)oxy)-N,N-dimethylethan-1-amine] the same measures were 6730 nM, over 50000 nM and 310 nM.
